# Measurements reported in patent publication US20210009542A1 (Calico Life Sciences LLC, priority 2018, published 2021).
# Like-named read-outs stand apart in the source and are kept apart here.
# How the values were obtained:
# [1] = system: B16F10 mouse melanoma cells; experiment: B16F10 IFNγ-induced cellular growth inhibition assay; assay type: cell-based; settings: for inhibition at 33 µM: Mus musculus, B16-F10
# How it was run: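 Live-cell imaging of confluence every 6 h over 5 days at 37 °C tracked growth of mouse B16F10 melanoma cells seeded overnight at 500/well. Semi-log compound series (final 100–0.001 μM, 0.1% DMSO) ran in both arms, ±IFNγ at 0.5 ng/mL final; inhibition taken relative to DMSO plus IFNγ when IFNγ-free DMSO wells passed 95% confluence.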
# [2] = system: Pan T cells isolated from C57BL6 splenocytes; experiment: T cell activation assay (flow cytometry, CD25/CD69 on CD8 T cells); assay type: cell-based, mouse; settings: for % CD25 within CD8+ / % CD69 within CD8+ / CD25 MFI / CD69 MFI: 30 μM compound, 2 days; for T cell activation and T cell function: with TCR stimulation
# Experimental: Pan T cells were isolated from C57BL6 splenocytes using a MACS Pan T cell isolation kit II (Miltenyi Biotec, Auburn, Calif.) according to the manufacturer's instructions. Isolated T cells (200,000 cells/well in a 96 well flat-bottom plate) were cultured in RPMI 1640 supplemented with 10% FBS, […] 2-mercatoethanol, 100 U/mL penicillin, and 100 μg/mL streptomycin, and incubated with the indicated concentration of compound or DMSO in duplicates. After 1 hour, mouse T cell activator CD3/CD28 Dynabeads (ThermoFisher Scientific, Waltham, Mass.) were added at a 1:5 beads to cells ratio to stimulate the T cells for 2 or 3 days as outlined below. T cells with or without compound were incubated in the absence of T cell activator beads (media only) as control.
# After 2 days of stimulation, activation status of T cells was assessed by flow cytometry. T cells were first subjected to Zombie Violet™ Fixable Viability dye (BioLegend, San Diego, Calif.) for dead cell exclusion, washed and then stained with BUV805 labeled anti-CD8, APC-R700 labeled anti-CD25 (both from BD Biosciences, San Jose, Calif.) and PE labeled anti-CD69 (BioLegend, San Diego, Calif.) antibodies. After staining, cells were fixed with 2% paraformaldehyde and acquired on a BD LSRFortessa™ X-20 flow cytometer (BD Biosciences, San Jose, Calif.) using BD FACSDiva™ software. Data was analyzed using FlowJo V10 (Flow Jo LLC, Ashland, Oreg.). Dead cells were excluded and frequencies of activated CD8 T cells was reported as the frequency of CD25+ or CD69+ cells within the CD8+ population. The expression level of CD25 and CD69 indicates the activation status of cells on a per cell basis and was evaluated by the mean fluorescence intensities (MFI) of CD25 and CD69.
# [3] = system: Granzyme B+ cells within CD8+ T cells; experiment: Granzyme B staining of CD8 T cells flow cytometry assay in mouse spleen; assay type: in vivo; settings: 300 mg/kg/dose oral BID; day 8 of dosing, 2 hours post 16th dose
# Experimental: Mice were sacrificed on day 8 of dosing with indicated PTPN2/1B inhibitor (2 hours after the 16th dose) and spleens were excised. Spleens were dissociated with a gentleMACS dissociator (Miltenyi Biotec, Bergisch Gladbach, Germany), red blood cells lysed, and single cell suspensions were prepared. Splenocytes were stained with Zombie UV™ Fixable Viability kit (Biolegend, San Diego, Calif.) diluted in Dulbecco's PBS for 10 minutes at room temperature to exclude dead cells followed by staining for surface markers for 45 minutes on ice using the following flow cytometry antibodies diluted in autoMACS Running Buffer (Miltenyi Biotec, Bergisch Gladbach, Germany): Brilliant Violet 510-labeled anti-CD45, Brilliant Ultraviolet 395-labeled anti-CD3, Brilliant Violet 786-labeled anti-CD4, APC/Cy7-labeled anti-CD8. […] After staining, cells were washed twice with autoMACS Running Buffer, and the samples were acquired on a BD LSRFortessa™ X20 flow cytometers (BD Biosciences, San Jose, Calif.) and analyzed with FLowJo V10 software (FlowJo, Ashland, Oreg.). […]
# IP10 = experiment: Cytokine measurement in mouse plasma (IP10); assay type: in vivo; settings: 300 mg/kg/dose oral BID; day 8 of dosing, 2 hours post 16th dose
# Experimental: Whole blood was drawn into sodium heparin by cardiac puncture from mice on day 8 of dosing with indicated PTPN2/1B inhibitor (2 hours after the 16th dose) and plasma was prepared by centrifugation. Cytokines in plasma were measured using the Th1/Th2 Cytokine & Chemokine 20-Plex Mouse ProcartaPlex™ Panel 1 (Invitrogen, Carlsbad, Calif.). IP10 levels were expressed as fold-changes over the vehicle control animal group.
# [4] = +0.5 ng/mL IFNγ, 33 μM compound, relative to DMSO control, read-out: % B16F10 growth inhibition (+0.5 ng/mL IFNγ) @ 33 μM
# [5] = no IFNγ, 33 μM compound, read-out: % B16F10 growth inhibition (no IFNγ) @ 33 μM
# [6] = anti-CD3/anti-CD28 Dynabeads (1:5 beads:cells)
smiles,measurement,setting,value
"COc1ccc2cc(O)c(N3CC(=O)NS3(=O)=O)c(F)c2c1 [Compound 124, 5-(1-fluoro-3-hydroxy-7-methoxynaphthalen-2-yl)-1λ^6,2,5-thiadiazolidine-1,1,3-trione]",inhibition at 33 µM,"[1]; 33 μM, in the presence of IFNγ, read-out: growth inhibition in the presence of IFNγ compared to DMSO controls",60 to 90%
same,inhibition at 33 µM,[1]; [4],60 to 90%
same,inhibition at 33 µM,[1]; [5],< 25%
same,% B16F10 growth inhibition (+0.5 ng/mL IFNγ) @ 33 μM,"[1]; Table 4, +0.5 ng/mL IFNγ, 33 μM",B (a percent growth inhibition of 60-90%)
same,% B16F10 growth inhibition (no IFNγ) @ 33 μM,"[1]; Table 4, no IFNγ, 33 μM",D (a percent growth inhibition of <25%)
same,growth inhibition in the absence of IFNγ,[1]; absence of IFNγ,no observed growth inhibition
same,% CD25 within CD8+,[2]; [6],32.55%
same,% CD69 within CD8+,[2]; [6],61.90%
same,CD25 MFI,[2]; [6],846.5
same,CD69 MFI,[2]; [6],1421.5
same,% CD25 within CD8+,[2]; no TCR stimulation,0.39%
same,% CD69 within CD8+,[2]; no TCR stimulation,0.23%
same,CD25 MFI,[2]; no TCR stimulation,57.05
same,CD69 MFI,[2]; no TCR stimulation,28.1
same,T cell activation and T cell function,[2],increased both T cell activation and T cell function
same,% GzB+ cells within splenic CD8+ T cells [fold change over vehicle],[3],2.9 fold
same,IP10 in plasma [fold increase over vehicle],IP10,2.5 fold
"CC(C)(O)CCOc1ccc2cc(O)c(N3CC(=O)NS3(=O)=O)c(F)c2c1 [Compound 182, 5-[1-fluoro-3-hydroxy-7-(3-hydroxy-3-methylbutoxy)naphthalen-2-yl]-1λ^6,2,5-thiadiazolidine-1,1,3-trione]",inhibition at 33 µM,[1]; [4],60 to 90%
same,inhibition at 33 µM,[1]; [5],< 25%
same,% CD25 within CD8+,[2]; [6],29.20%
same,% CD69 within CD8+,[2]; [6],61.90%
same,CD25 MFI,[2]; [6],741
same,CD69 MFI,[2]; [6],1601.5
same,% CD25 within CD8+,[2]; no TCR stimulation,1.17%
same,% CD69 within CD8+,[2]; no TCR stimulation,0.45%
same,CD25 MFI,[2]; no TCR stimulation,72.4
same,CD69 MFI,[2]; no TCR stimulation,18.3
same,T cell activation and T cell function,[2],increased both T cell activation and T cell function
